Source: PubChem BioAssay (NCI)
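In this assay, cells in 96-well plates receive the compound at five concentrations for 48 hours. Endpoints are linearly interpolated between the surrounding concentrations. TGI: concentration producing complete growth inhibition.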

What was measured:
Experiment in all cases: NCI tumour cell line growth inhibition, 48 h
786-0 renal = system: 786-0 renal
A498 renal = system: A498 renal
A549 NSCLC = system: A549 NSCLC
ACHN renal = system: ACHN renal
CAKI-1 renal = system: CAKI-1 renal
CCRF-CEM leukemia = system: CCRF-CEM leukemia
COLO 205 colon = system: COLO 205 colon
DLD-1 colon = system: DLD-1 colon
DMS 114 small cell lung = system: DMS 114 small cell lung
DMS 273 small cell lung = system: DMS 273 small cell lung
EKVX NSCLC = system: EKVX NSCLC
HCT-116 colon = system: HCT-116 colon
HCT-15 colon = system: HCT-15 colon
HL-60(TB) leukemia = system: HL-60(TB) leukemia
HOP-18 NSCLC = system: HOP-18 NSCLC
HOP-62 NSCLC = system: HOP-62 NSCLC
HOP-92 NSCLC = system: HOP-92 NSCLC
HT29 colon = system: HT29 colon
IGROV1 ovarian = system: IGROV1 ovarian
KM12 colon = system: KM12 colon
KM20L2 colon = system: KM20L2 colon
LOX IMVI melanoma = system: LOX IMVI melanoma
LXFL 529 NSCLC = system: LXFL 529 NSCLC
M14 melanoma = system: M14 melanoma
M19-MEL melanoma = system: M19-MEL melanoma
MALME-3M melanoma = system: MALME-3M melanoma
MOLT-4 leukemia = system: MOLT-4 leukemia
NCI-H226 lung = system: NCI-H226 lung
NCI-H23 lung = system: NCI-H23 lung
NCI-H460 lung = system: NCI-H460 lung
NCI-H522 lung = system: NCI-H522 lung
OVCAR-3 ovarian = system: OVCAR-3 ovarian
OVCAR-4 ovarian = system: OVCAR-4 ovarian
OVCAR-5 ovarian = system: OVCAR-5 ovarian
OVCAR-8 ovarian = system: OVCAR-8 ovarian
RXF 393 renal = system: RXF 393 renal
SF-268 CNS = system: SF-268 CNS
SF-295 CNS = system: SF-295 CNS
SK-MEL-2 melanoma = system: SK-MEL-2 melanoma
SK-MEL-28 melanoma = system: SK-MEL-28 melanoma
SK-MEL-5 melanoma = system: SK-MEL-5 melanoma
SK-OV-3 ovarian = system: SK-OV-3 ovarian
SN12C renal = system: SN12C renal
SNB-19 CNS = system: SNB-19 CNS
SNB-75 CNS = system: SNB-75 CNS
SR leukemia = system: SR leukemia
SW-620 colon = system: SW-620 colon
TK-10 renal = system: TK-10 renal
U251 CNS = system: U251 CNS
UACC-257 melanoma = system: UACC-257 melanoma
UACC-62 melanoma = system: UACC-62 melanoma
UO-31 renal = system: UO-31 renal
XF 498 CNS = system: XF 498 CNS
HCC-2998 colon = system: HCC-2998 colon
K-562 leukemia = system: K-562 leukemia
RPMI-8226 leukemia = system: RPMI-8226 leukemia
SF-539 CNS = system: SF-539 CNS

In the case of `[O-][n+]1c2cc(CBr)c(CBr)cc2[n+]([O-])c2c(O)cccc21`, the TGI (786-0 renal) is reported as 2.93 µM, the TGI (A498 renal) is reported as 25.7 µM and the TGI (A549 NSCLC) is reported as 9.03 µM. It also gave a TGI (ACHN renal) of 3.51 µM, a TGI (CAKI-1 renal) of 6.7 µM and a TGI (CCRF-CEM leukemia) of 0.714 µM. For the same compound, the TGI (COLO 205 colon) was 3.47 µM, the TGI (DLD-1 colon) was 2.71 µM and the TGI (DMS 114 small cell lung) was 3.35 µM. For the same compound, the TGI (DMS 273 small cell lung) was 3.22 µM, the TGI (EKVX NSCLC) was 11.6 µM and the TGI (HCT-116 colon) was 2.87 µM. It also gave a TGI (HCT-15 colon) of 3.18 µM, a TGI (HL-60(TB) leukemia) of 1.14 µM and a TGI (HOP-18 NSCLC) of 10.5 µM. It also gave a TGI (HOP-62 NSCLC) of 34.7 µM, a TGI (HOP-92 NSCLC) of 2.92 µM and a TGI (HT29 colon) of 3.88 µM. It also gave a TGI (IGROV1 ovarian) of 8.59 µM, a TGI (KM12 colon) of 3.66 µM and a TGI (KM20L2 colon) of 9.53 µM. For the same compound, the TGI (LOX IMVI melanoma) was 2.64 µM, the TGI (LXFL 529 NSCLC) was 2.89 µM and the TGI (M14 melanoma) was 3.29 µM. It also gave a TGI (M19-MEL melanoma) of 3.32 µM, a TGI (MALME-3M melanoma) of 3.47 µM and a TGI (MOLT-4 leukemia) of 1.25 µM. It also gave a TGI (NCI-H226 lung) of 14.2 µM, a TGI (NCI-H23 lung) of 6.68 µM and a TGI (NCI-H460 lung) of 4.21 µM. For the same compound, the TGI (NCI-H522 lung) was 1.16 µM, the TGI (OVCAR-3 ovarian) was 5.24 µM and the TGI (OVCAR-4 ovarian) was 5.25 µM. The TGI (OVCAR-5 ovarian) was 3.74 µM, the TGI (OVCAR-8 ovarian) was 3.3 µM and the TGI (RXF 393 renal) was 3.69 µM. The TGI (SF-268 CNS) was 5.91 µM, the TGI (SF-295 CNS) was 3.27 µM and the TGI (SK-MEL-2 melanoma) was 4.83 µM. For the same compound, the TGI (SK-MEL-28 melanoma) was 3.67 µM, the TGI (SK-MEL-5 melanoma) was 4.39 µM and the TGI (SK-OV-3 ovarian) was 9.15 µM. The TGI (SN12C renal) was 3.05 µM, the TGI (SNB-19 CNS) was 11 µM and the TGI (SNB-75 CNS) was 4.48 µM. The TGI (SR leukemia) was 0.662 µM, the TGI (SW-620 colon) was 2.9 µM and the TGI (TK-10 renal) was 10.9 µM. For the same compound, the TGI (U251 CNS) was 7.07 µM, the TGI (UACC-257 melanoma) was 6.37 µM and the TGI (UACC-62 melanoma) was 3.39 µM. The TGI (UO-31 renal) was 4.56 µM and the TGI (XF 498 CNS) was 4.67 µM.
`Cc1ccc(-n2c(=S)[nH]c3ccc(Br)cc3c2=O)cc1` gave a TGI (786-0 renal) of over 100 µM, a TGI (A498 renal) of over 100 µM and a TGI (A549 NSCLC) of over 100 µM. It also gave a TGI (ACHN renal) of over 100 µM, a TGI (COLO 205 colon) of over 100 µM and a TGI (DLD-1 colon) of over 100 µM. For the same compound, the TGI (DMS 114 small cell lung) was over 100 µM, the TGI (EKVX NSCLC) was over 100 µM and the TGI (HCC-2998 colon) was over 100 µM. For the same compound, the TGI (HCT-116 colon) was over 100 µM, the TGI (HCT-15 colon) was over 100 µM and the TGI (HL-60(TB) leukemia) was over 100 µM. For the same compound, the TGI (HOP-18 NSCLC) was over 100 µM, the TGI (HOP-62 NSCLC) was over 100 µM and the TGI (HOP-92 NSCLC) was over 100 µM. It also gave a TGI (HT29 colon) of over 100 µM, a TGI (IGROV1 ovarian) of over 100 µM and a TGI (K-562 leukemia) of over 100 µM. The TGI (KM12 colon) was over 100 µM, the TGI (KM20L2 colon) was over 100 µM and the TGI (LOX IMVI melanoma) was over 100 µM. For the same compound, the TGI (LXFL 529 NSCLC) was over 100 µM, the TGI (M19-MEL melanoma) was over 100 µM and the TGI (MALME-3M melanoma) was over 100 µM. For the same compound, the TGI (MOLT-4 leukemia) was over 100 µM, the TGI (NCI-H226 lung) was over 100 µM and the TGI (NCI-H23 lung) was over 100 µM. For the same compound, the TGI (NCI-H460 lung) was over 100 µM, the TGI (NCI-H522 lung) was over 100 µM and the TGI (OVCAR-3 ovarian) was over 100 µM. It also gave a TGI (OVCAR-4 ovarian) of over 100 µM, a TGI (OVCAR-5 ovarian) of over 100 µM and a TGI (OVCAR-8 ovarian) of over 100 µM. For the same compound, the TGI (RPMI-8226 leukemia) was over 100 µM, the TGI (RXF 393 renal) was over 100 µM and the TGI (SF-268 CNS) was over 100 µM. It also gave a TGI (SF-295 CNS) of over 100 µM, a TGI (SF-539 CNS) of over 100 µM and a TGI (SK-MEL-2 melanoma) of over 100 µM. For the same compound, the TGI (SN12C renal) was over 100 µM, the TGI (SNB-19 CNS) was over 100 µM and the TGI (SNB-75 CNS) was over 100 µM. It also gave a TGI (SR leukemia) of over 100 µM, a TGI (SW-620 colon) of over 100 µM and a TGI (TK-10 renal) of over 100 µM. For the same compound, the TGI (U251 CNS) was over 100 µM, the TGI (UACC-257 melanoma) was over 100 µM and the TGI (UO-31 renal) was over 100 µM. The TGI (XF 498 CNS) was over 100 µM.
`CC(C)(C)c1cc(COc2c3sc(=S)sc3c(OCc3cc(C(C)(C)C)cc(C(C)(C)C)c3)c3sc(=S)sc23)cc(C(C)(C)C)c1` gave a TGI (786-0 renal) of over 100 µM, a TGI (A498 renal) of over 100 µM and a TGI (A549 NSCLC) of over 100 µM. For the same compound, the TGI (ACHN renal) was over 100 µM, the TGI (CAKI-1 renal) was over 100 µM and the TGI (CCRF-CEM leukemia) was over 100 µM. The TGI (COLO 205 colon) was over 100 µM, the TGI (DLD-1 colon) was over 100 µM and the TGI (DMS 273 small cell lung) was over 100 µM. The TGI (EKVX NSCLC) was over 100 µM, the TGI (HCC-2998 colon) was over 100 µM and the TGI (HCT-116 colon) was over 100 µM. The TGI (HCT-15 colon) was over 100 µM, the TGI (HL-60(TB) leukemia) was over 100 µM and the TGI (HOP-18 NSCLC) was over 100 µM. The TGI (HOP-62 NSCLC) was over 100 µM, the TGI (HT29 colon) was over 100 µM and the TGI (IGROV1 ovarian) was over 100 µM. The TGI (K-562 leukemia) was over 100 µM, the TGI (KM20L2 colon) was over 100 µM and the TGI (LOX IMVI melanoma) was over 100 µM. For the same compound, the TGI (LXFL 529 NSCLC) was over 100 µM, the TGI (M14 melanoma) was over 100 µM and the TGI (M19-MEL melanoma) was over 100 µM. The TGI (MOLT-4 leukemia) was over 100 µM, the TGI (NCI-H23 lung) was over 100 µM and the TGI (NCI-H460 lung) was over 100 µM. For the same compound, the TGI (OVCAR-3 ovarian) was over 100 µM, the TGI (OVCAR-4 ovarian) was over 100 µM and the TGI (OVCAR-8 ovarian) was over 100 µM. The TGI (RPMI-8226 leukemia) was over 100 µM, the TGI (RXF 393 renal) was over 100 µM and the TGI (SF-295 CNS) was over 100 µM. The TGI (SF-539 CNS) was over 100 µM, the TGI (SK-MEL-28 melanoma) was over 100 µM and the TGI (SK-MEL-5 melanoma) was over 100 µM. For the same compound, the TGI (SK-OV-3 ovarian) was over 100 µM, the TGI (SN12C renal) was over 100 µM and the TGI (SNB-19 CNS) was over 100 µM. It also gave a TGI (SNB-75 CNS) of over 100 µM, a TGI (SW-620 colon) of over 100 µM and a TGI (TK-10 renal) of over 100 µM. For the same compound, the TGI (U251 CNS) was over 100 µM, the TGI (UACC-257 melanoma) was over 100 µM and the TGI (UACC-62 melanoma) was over 100 µM. For the same compound, the TGI (XF 498 CNS) was over 100 µM.
